Where a name gives a salt, the structure may show the parent alone. Read-outs that look alike come from different tables or passages of the source. Marks after values point to notes of the source that are not given here.

Here are results for 5 molecules from patent publication US8354438B2, “Neurological functions” (priority 2001, dated 2013).

For series [1], the system named is carnosinase. As to conditions: compared with the parent compound carnosine; Boldyrev 2000; cited from earlier work.
Series [2] deals with Helicobacter pylori. As to conditions: Matsukura and Tanaka 2000; cited from earlier work.
Series [3] deals with children with ASD. Put plainly: Subsequent long-term observation of children with ASD on DH. In kind it is in vivo, human. The text has this: We have subsequently followed over 100 children with ASD on DH for up to 20 months since the conclusion of this study. […] Further long-term use of cholinesterase inhibitors may lead to greater understanding of the possible ability to sustain new neuronal connections in a brain that has more neuronal plasticity than the elderly with Alzheimer's Disease.

Series [4] relates to children with Autistic spectrum disorders. As to conditions: for Rec. Speech Age (N = 31) / CARS (N = 35) / Exp. Speech Age (N = 31): Group I combined with Group II. The text has this:
American Psychiatric Association. Diagnostic and Statistical Manual of Mental Disorders (4th ed.). Washington, D.C.: Author 1994. Diagnosis was confirmed by a pediatric neurologist after completing a comprehensive neurological evaluation and also by a clinical interview with a clinical psychologist. No child was excluded based upon intelligence estimate or developmental language level.
We included patients with abnormal electroencephalograns (EEGs) as they represent an important section of the ASD population. Hollander, E. et al., J. Clin. Psychiatry 2001; 62(7): 530-534. […] Hollander, E. et al., J. Clin. Psychiatry 2001; 62(7): 530-534 DiMartino, A. and Tuchman, R. F., Pediatric Neurology 2001; 25(3): 199-207. Other patients were maintained on corticosteroids (N=6, pulse-dose prednisone or prednisolone), CNS stimulants (N=8, dextroamphetamine/amphetamine or methylphenidate), antidepressants (N=7, fluoxetine hydrochloride or paroxetine), antipsychotics (N=4, risperidone), or alpha adrenergic blocking agents (N=9, clonidine).
The standard donepezil dosage recommendation of 5 milligrams was halved in accordance with pediatric protocols to arrive at a quantity of 2.5 milligrams. The duration of the double-blind, parallel trial was six weeks, at which time all subjects entered open-label treatment for an additional six weeks.
The dose was lowered to 1.25 milligrams or discontinued throughout the 12-week trial if adverse events persisted for more than one week (e.g., irritability, hyperactivity, or gastrointestinal problems). The maximum daily dose was 2.5 milligrams. The medication was adjusted by halving the dose (1.25 mg) if parents noted their children to have tolerable yet persistent gastrointestinal distress, hyperactivity, or irritability. Medication was discontinued if GI intolerability or changes in behavior were considered to be an adverse event (i.e., persisted for more than […]). Medication was administered at dinnertime, unless restlessness occurred in sleep, in which case administration was changed to an earlier time in the day. Dinnertime was selected as the preferred administration time in an attempt to alleviate gastrointestinal side effects observed in the dementia population.
All staff, including nurses, were blinded to the status of the patients on either placebo or drug during the six-week double-blind phase. Patient progress and side effects were monitored at the scheduled appointments by study coordinators, nursing staff, and the primary investigator. Gardner's Receptive One-Word Picture Vocabulary Test (ROWPVT), the EOWPVT-R, and the Childhood Autism Rating Scale (CARS) were administered at baseline, 6-week, and 12-week follow-up visits by the same study coordinator (R.T.):
Outcome Measures: The Receptive One-Word Picture Vocabulary Test, Gardner, M. F. Receptive One-Word Picture Vocabulary Test: ROWPVT. Novato, Calif.: Academic Therapy Publications 1985, examines a child's understanding of language and is an effective tool for assessing receptive language in children with expressive language difficulties. The test was developed for children ages two through twelve. Participants are shown a group of four pictures and asked to point to the picture corresponding to the word presented aurally by the clinician. The test is completed when the child makes six errors of eight consecutive items.
The Expressive One-Word Picture Vocabulary Test—Revised can be used as a tool to determine auditory-visual-verbal association ability as well as expressive language functioning in young children ages two through 12. Gardner, M. F. Expressive One-Word Picture Vocabulary Test (Revised): EOWPVT-R. Novato, Calif.: Academic Therapy Publications 1990. The test was developed to address general concrete concepts, grouping, abstract concepts, and descriptive concepts.

Setting [5] is: Group I (DH), Baseline to Week 6, placebo group 30%.
Setting [6] is: Group I (DH, DH) N = 23, BASELINE
[7] abbreviates: Group I (DH, DH), DH 2.5 milligrams, 6-WEEK, p < .05, BL compared to 6 week.
[8] abbreviates: Group I (DH, DH), DH 2.5 milligrams, 12-WEEK, p < .05, BL compared to 6 and 12 week.

For `Cn1cncc1C[C@H](NC(=O)CCN)C(=O)O` [ophidine, β-Alanlyl-3-methyl-L-histidine], the rate of hydrolysis result in series [1] was “much more slowly”.

For `CC(=O)NCCC(=O)N[C@@H](Cc1cnc[nH]1)C(=O)O` [N-acetylcarnosine], the rate of hydrolysis result in series [1] is “negligible”.

On to `NCCC(=O)[N-][C@@H](Cc1c[nH]cn1)C(=O)[O-].[Zn+2]` [L-CAZ], for which the Helicobacter pylori inhibition result in series [2] is recorded as “inhibited”.

As for `COc1cc2c(cc1OC)C(=O)C(CC1CCN(Cc3ccccc3)CC1)C2` (stereo not shown) [DH, donepezil hydrochloride], the “long-term deficits or down-regulation effect” value in series [3] (over 100 children with ASD on DH for up to 20 months) is “No obvious long-term deficits or suspected down-regulation effect”. Moreover, the “regressions or lost skills after stopping the medication” value in series [3] (patients stopped the medication after 6 additional months) is reported as “no patients had major regressions or lost skills”. In series [4] (setting [5]), the “children with CARS change scores ([Baseline]-[6 Week score]) indicating improvement of 3.0 or greater” value is given as 50%. Besides, the “children with clinically meaningful worsening of CARS scores” value in series [4] (setting [5]) is listed as 12.5%. For the same molecule, the CARS in series [4] (setting [6]) is reported as 34.7 (SD = 7.7); in series [4] (Group I (DH, DH), DH 2.5 milligrams, 6-WEEK) it was 33.3 (SD = 8.0); in series [4] (Group I (DH, DH), DH 2.5 milligrams, 12-WEEK, p < .05, BL compared to 12 week), 30.8 (SD = 7.9)**; in series [4] (Group II (Placebo, DH): six weeks placebo then six weeks DH, 12-WEEK, end of placebo (6-WEEK) 32.9 (SD = 7.7), p < .05), 30.9 (SD = 9.1)*. In addition, the “Exp. Speech Age (mos.)” value in series [4] (setting [6]) is recorded as 35.7 (SD = 27.8) mos; in series [4] (setting [7]) it was 43.3 (SD = 27.2)* mos; in series [4] (setting [8]) it was 42.5 (SD = 28.5)*** mos; in series [4] (Group II (Placebo, DH): six weeks placebo then six weeks DH, 12-WEEK, end of placebo 33.8 (SD = 32.9), reduced N (=16), p < .05), 40.9 (SD = 38.8)***^@ mos. For the same molecule, the “Rec. Speech Age (mos.)” value in series [4] (setting [6]) is on record as 38.8 (SD = 23.5) mos; in series [4] (setting [7]) it was 50.3 (SD = 27.0)* mos; in series [4] (setting [8]), 49.7 (SD = 34.2)*** mos; in series [4] (Group II (Placebo, DH): six weeks placebo then six weeks DH, 12-WEEK, end of placebo 39.83 (SD = 27), reduced N (=16), p < .05, 6 compared to 12 week), 87.37 (SD = 14.2)**^@ mos. Besides, the “Rec. Speech Age (N = 31)” value in series [4] (6-weeks DH, p value .002) is reported as 53.2 (SD = 25.8); in series [4] (BASELINE before six weeks DH), 43.7 (SD = 22.2). The “CARS (N = 35)” value in series [4] (6-weeks DH, p value .004) is 32.2 (SD = 8.5); in series [4] (BASELINE before six weeks DH), 34.7 (SD = 7.4). Besides, the “Exp. Speech Age (N = 31)” value is reported as 43.6 (SD = 31.8) in series [4] (6-weeks DH, p value .044) and 39.3 (SD = 27.9) in series [4] (BASELINE before six weeks DH). Moreover, the “patients dropped from the study after the first 6 weeks who had been on DH” value in series [4] (of nine patients dropped) is 6/9. Moreover, the “patients discontinued due to diarrhea or stomach cramping” value in series [4] (of the 6 dropped patients on DH) was determined as 2 patients.

Take `NCCC(=O)NCCc1c[nH]cn1` [carcinine]: in series [1], the rate of hydrolysis entry is “negligible”.
